{"source": "patent US6355799B1", "about": "“Substituted benzene compounds, process for their preparation, and herbicidal and defoliant compositions containing them” (ISK Americas Incorporated, priority 1997, dated 2002)", "type_in_all_cases": "in vivo", "key": {"[1]": {"system": "upland rice (Oryza sp., var. Tebonnet, RICE)", "assay": "Post-emerge test, crop safety", "settings": "post-emerge, crop damage rating 0-100 at 14 days after application", "method_in_brief": "(§1)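 Each test used a mechanized track sprayer delivering 187 l/ha of acetone solution at 15–1000 g ai/ha. Post-emerge foliage at 2–3 leaves was treated with added 0.25% v/v non-ionic surfactant and bottom-watered only. Injury was assessed on day 14, where 100 means total kill.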"}, "[2]": {"system": "field corn (Zea mays L., var. Dekalb 535, CORN)", "assay": "Post-emerge test, crop safety", "settings": "post-emerge, crop damage rating 0-100 at 14 days after application", "method_in_brief": "as §1"}, "[3]": {"system": "redroot pigweed (Amaranthus retroflexus, AMARE)", "assay": "Pre-emerge test, greenhouse herbicide activity screening", "settings": "pre-emerge, phytotoxicity rating 0-100 at 14 days after application", "method_in_brief": "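Sandy loam pots; pre-emerge: sown 1 d pre-spray, surface-watered after, then bottom-watered. Post-emerge: sown 8–21 d before, 2–3 leaf stage, + 0.25% v/v NIS, bottom-watered. Acetone, 187 l/ha track spray, 15–1000 g ai/ha. 0–100 injury score, day 14.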"}, "[4]": {"system": "barnyardgrass (Echinochloa crus-galli, ECHCG)", "assay": "Pre-emerge test, greenhouse herbicide activity screening", "settings": "pre-emerge, phytotoxicity rating 0-100 at 14 days after application", "method_in_brief": "(§2)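 Plants grown in 10 cm pots of sandy loam mix received acetone-dissolved compounds through a moving flat-fan nozzle. Doses ranged from 15 to 1000 g ai/ha. Pre-emerge pots were seeded one day earlier, post-emerge pots 8–21 days earlier. Fourteen days on, each pot was graded 0–100 for damage.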"}, "[5]": {"system": "johnsongrass (Sorghum halepense, SORHA)", "assay": "Pre-emerge test, greenhouse herbicide activity screening", "settings": "pre-emerge, phytotoxicity rating 0-100 at 14 days after application", "method_in_brief": "as §2"}, "[6]": {"system": "large crabgrass (Digitaria sanguinalis, DIGSA)", "assay": "Pre-emerge test, greenhouse herbicide activity screening", "settings": "pre-emerge, phytotoxicity rating 0-100 at 14 days after application", "method_in_brief": "as §2"}, "[7]": {"system": "sicklepod (Cassia obtusifolia, CASOB)", "assay": "Pre-emerge test, greenhouse herbicide activity screening", "settings": "pre-emerge, phytotoxicity rating 0-100 at 14 days after application", "method_in_brief": "as §2"}, "[8]": {"system": "velvetleaf (Abutilon theophrasti, ABUTH)", "assay": "Pre-emerge test, greenhouse herbicide activity screening", "settings": "pre-emerge, phytotoxicity rating 0-100 at 14 days after application", "method_in_brief": "as §2"}, "[9]": {"system": "lambsquarters (Chenopodium album, CHEAL)", "assay": "Pre-emerge test, greenhouse herbicide activity screening", "settings": "pre-emerge, phytotoxicity rating 0-100 at 14 days after application", "method_in_brief": "as §2"}, "[10]": {"system": "green foxtail (Setaria viridis, SETVI)", "assay": "Pre-emerge test, greenhouse herbicide activity screening", "settings": "pre-emerge, phytotoxicity rating 0-100 at 14 days after application", "method_in_brief": "as §2"}, "[11]": {"system": "ivyleaf morningglory (Ipomoea hederacea, IPOHE)", "assay": "Pre-emerge test, greenhouse herbicide activity screening", "settings": "pre-emerge, phytotoxicity rating 0-100 at 14 days after application", "method_in_brief": "as §2"}, "[12]": {"system": "upland rice (Oryza sp., var. Tebonnet, RICE)", "assay": "Pre-emerge test, crop safety", "settings": "crop damage, pre-emerge, phytotoxicity rating 0-100 at 14 days after application", "method_in_brief": "(§3)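 Rating: 0–100 visual injury, 14 DAA. Application: acetone, 187 l/ha, 15–1000 g ai/ha, flat-fan track sprayer with nozzle 40–45 cm above soil or canopy. Post-emerge runs used 0.25% v/v surfactant on 2–3 leaf plants.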"}, "[13]": {"system": "field corn (Zea mays L., var. Dekalb 535, CORN)", "assay": "Pre-emerge test, crop safety", "settings": "crop damage, pre-emerge, phytotoxicity rating 0-100 at 14 days after application", "method_in_brief": "as §3"}, "[14]": {"system": "barnyardgrass (Echinochloa crus-galli, ECHCG)", "assay": "Post-emerge test, greenhouse herbicide activity screening", "settings": "post-emerge, phytotoxicity rating 0-100 at 14 days after application", "method_in_brief": "(§4)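 Visual ratings on a 0-100 scale (0 no damage, 100 all plants dead) were taken at 14 days after treatment. Rates of 15-1000 g ai/ha in acetone, 187 l/ha, were sprayed onto soil one day after planting (pre-emerge) or onto 2-3 leaf plants with 0.25% v/v surfactant (post-emerge).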"}, "[15]": {"system": "johnsongrass (Sorghum halepense, SORHA)", "assay": "Post-emerge test, greenhouse herbicide activity screening", "settings": "post-emerge, phytotoxicity rating 0-100 at 14 days after application", "method_in_brief": "as §4"}, "[16]": {"system": "large crabgrass (Digitaria sanguinalis, DIGSA)", "assay": "Post-emerge test, greenhouse herbicide activity screening", "settings": "post-emerge, phytotoxicity rating 0-100 at 14 days after application", "method_in_brief": "as §4"}, "[17]": {"system": "sicklepod (Cassia obtusifolia, CASOB)", "assay": "Post-emerge test, greenhouse herbicide activity screening", "settings": "post-emerge, phytotoxicity rating 0-100 at 14 days after application", "method_in_brief": "as §4"}, "[18]": {"system": "velvetleaf (Abutilon theophrasti, ABUTH)", "assay": "Post-emerge test, greenhouse herbicide activity screening", "settings": "post-emerge, phytotoxicity rating 0-100 at 14 days after application", "method_in_brief": "as §4"}, "[19]": {"system": "lambsquarters (Chenopodium album, CHEAL)", "assay": "Post-emerge test, greenhouse herbicide activity screening", "settings": "post-emerge, phytotoxicity rating 0-100 at 14 days after application", "method_in_brief": "as §4"}, "[20]": {"system": "green foxtail (Setaria viridis, SETVI)", "assay": "Post-emerge test, greenhouse herbicide activity screening", "settings": "post-emerge, phytotoxicity rating 0-100 at 14 days after application", "method_in_brief": "as §4"}, "[21]": {"system": "redroot pigweed (Amaranthus retroflexus, AMARE)", "assay": "Post-emerge test, greenhouse herbicide activity screening", "settings": "post-emerge, phytotoxicity rating 0-100 at 14 days after application", "method_in_brief": "as §4"}, "[22]": {"system": "ivyleaf morningglory (Ipomoea hederacea, IPOHE)", "assay": "Post-emerge test, greenhouse herbicide activity screening", "settings": "post-emerge, phytotoxicity rating 0-100 at 14 days after application", "method_in_brief": "as §4"}}}
{"molecule": "Nc1c(OC2CCCC2)c(Cl)cc(F)c1N1C(=O)C2=C(CCCC2)C1=O", "note": "[Compound 8-5, N-(2-amino-4-chloro-3-cyclopentyloxy-6-fluorophenyl)tetrahydrophthalimide]", "values": [{"measurement": "Post-emerge Herbicidal Activity RICE", "setting": "[1]; 63 g ai/ha", "result": 40}, {"measurement": "Post-emerge Herbicidal Activity RICE", "setting": "[1]; 250 g ai/ha", "result": 50}, {"measurement": "Post-emerge Herbicidal Activity CORN", "setting": "[2]; 63 g ai/ha", "result": 0}, {"measurement": "Post-emerge Herbicidal Activity CORN", "setting": "[2]; 250 g ai/ha", "result": 0}, {"measurement": "Pre-emerge Herbicidal Activity AMARE", "setting": "[3]; rate 63 g ai/ha", "result": 40}, {"measurement": "Pre-emerge Herbicidal Activity AMARE", "setting": "[3]; rate 250 g ai/ha", "result": 95}, {"measurement": "Pre-emerge Herbicidal Activity ECHCG", "setting": "[4]; rate 63 g ai/ha", "result": 0}, {"measurement": "Pre-emerge Herbicidal Activity ECHCG", "setting": "[4]; rate 250 g ai/ha", "result": 0}, {"measurement": "Pre-emerge Herbicidal Activity SORHA", "setting": "[5]; rate 63 g ai/ha", "result": 0}, {"measurement": "Pre-emerge Herbicidal Activity SORHA", "setting": "[5]; rate 250 g ai/ha", "result": 20}, {"measurement": "Pre-emerge Herbicidal Activity DIGSA", "setting": "[6]; rate 63 g ai/ha", "result": 0}, {"measurement": "Pre-emerge Herbicidal Activity DIGSA", "setting": "[6]; rate 250 g ai/ha", "result": 0}, {"measurement": "Pre-emerge Herbicidal Activity CASOB", "setting": "[7]; rate 63 g ai/ha", "result": 0}, {"measurement": "Pre-emerge Herbicidal Activity CASOB", "setting": "[7]; rate 250 g ai/ha", "result": 40}, {"measurement": "Pre-emerge Herbicidal Activity ABUTH", "setting": "[8]; rate 63 g ai/ha", "result": 0}, {"measurement": "Pre-emerge Herbicidal Activity ABUTH", "setting": "[8]; rate 250 g ai/ha", "result": 70}, {"measurement": "Pre-emerge Herbicidal Activity CHEAL", "setting": "[9]; rate 63 g ai/ha", "result": 0}, {"measurement": "Pre-emerge Herbicidal Activity CHEAL", "setting": "[9]; rate 250 g ai/ha", "result": 80}, {"measurement": "Pre-emerge Herbicidal Activity SETVI", "setting": "[10]; rate 63 g ai/ha", "result": 70}, {"measurement": "Pre-emerge Herbicidal Activity SETVI", "setting": "[10]; rate 250 g ai/ha", "result": 90}, {"measurement": "Pre-emerge Herbicidal Activity IPOHE", "setting": "[11]; rate 63 g ai/ha", "result": 0}, {"measurement": "Pre-emerge Herbicidal Activity IPOHE", "setting": "[11]; rate 250 g ai/ha", "result": 0}, {"measurement": "Pre-emerge Herbicidal Activity RICE", "setting": "[12]; rate 63 g ai/ha", "result": 0}, {"measurement": "Pre-emerge Herbicidal Activity RICE", "setting": "[12]; rate 250 g ai/ha", "result": 0}, {"measurement": "Pre-emerge Herbicidal Activity CORN", "setting": "[13]; rate 63 g ai/ha", "result": 0}, {"measurement": "Pre-emerge Herbicidal Activity CORN", "setting": "[13]; rate 250 g ai/ha", "result": 0}, {"measurement": "Post-emerge Herbicidal Activity ECHCG", "setting": "[14]; 63 g ai/ha", "result": 0}, {"measurement": "Post-emerge Herbicidal Activity ECHCG", "setting": "[14]; 250 g ai/ha", "result": 0}, {"measurement": "Post-emerge Herbicidal Activity SORHA", "setting": "[15]; 63 g ai/ha", "result": 0}, {"measurement": "Post-emerge Herbicidal Activity SORHA", "setting": "[15]; 250 g ai/ha", "result": 0}, {"measurement": "Post-emerge Herbicidal Activity DIGSA", "setting": "[16]; 63 g ai/ha", "result": 0}, {"measurement": "Post-emerge Herbicidal Activity DIGSA", "setting": "[16]; 250 g ai/ha", "result": 0}, {"measurement": "Post-emerge Herbicidal Activity CASOB", "setting": "[17]; 63 g ai/ha", "result": 0}, {"measurement": "Post-emerge Herbicidal Activity CASOB", "setting": "[17]; 250 g ai/ha", "result": 10}, {"measurement": "Post-emerge Herbicidal Activity ABUTH", "setting": "[18]; 63 g ai/ha", "result": 70}, {"measurement": "Post-emerge Herbicidal Activity ABUTH", "setting": "[18]; 250 g ai/ha", "result": 90}, {"measurement": "Post-emerge Herbicidal Activity CHEAL", "setting": "[19]; 63 g ai/ha", "result": 70}, {"measurement": "Post-emerge Herbicidal Activity CHEAL", "setting": "[19]; 250 g ai/ha", "result": 70}, {"measurement": "Post-emerge Herbicidal Activity SETVI", "setting": "[20]; 63 g ai/ha", "result": 0}, {"measurement": "Post-emerge Herbicidal Activity SETVI", "setting": "[20]; 250 g ai/ha", "result": 20}, {"measurement": "Post-emerge Herbicidal Activity AMARE", "setting": "[21]; 63 g ai/ha", "result": 40}, {"measurement": "Post-emerge Herbicidal Activity AMARE", "setting": "[21]; 250 g ai/ha", "result": 100}, {"measurement": "Post-emerge Herbicidal Activity IPOHE", "setting": "[22]; 63 g ai/ha", "result": 0}, {"measurement": "Post-emerge Herbicidal Activity IPOHE", "setting": "[22]; 250 g ai/ha", "result": 40}]}
